The text below walks through data of PMC12705620 (Frontiers in Pharmacology, 2025).

Assay [1] deals with Enterococcus faecium LUH15122. It counts as cell-based. The settings on record: LUH15122, 18 h.
The test system of assay [2] is TNF-α production by unstimulated dTHP-1 macrophages. The assay can be described thus: TNFα induction by peptides alone in macrophages. The settings on record: 2 µM peptide, 4 h, no endotoxin stimulation, versus unstimulated cells. Type of assay: cell-based, human. Here is the method: The endotoxin-neutralizing capacity of the peptides was assessed by measuring tumor necrosis factor-alpha (TNF-α) production by dTHP-1 macrophages. dTHP-1 macrophages were stimulated with either lipopolysaccharide (LPS; E. coli O111:B4; 5 ng/mL, Sigma-Aldrich) or UV-inactivated S. aureus JAR060131 (MOI 2; as described in Section 5.2), in the presence or absence of one or 2 µM peptides. Cells were cultured in serum-free RPMI and incubated for 4 h at 37 °C with 5% CO2. Positive controls consisted of cells stimulated with LPS or UV-S. aureus without peptide treatment (no treatment, NT), and unstimulated cells served as negative controls. After stimulation, cell supernatants were collected, and cytokine levels of TNF-α were quantified using human ELISA kits (R&D Systems, USA) according to the manufacturer’s instructions. Each condition was tested in triplicate.

Bridge positions count the residues as written; N and C are the ends. Square brackets hold non-standard residues; d marks the D form. Peptide text beside a SMILES is read from it. I, II: the chains in the order shown. Dap = NC[C@H](N)C(=O)O; Ahx = NCCCCCC(=O)O

Take `N=C(N)NCCC[C@H](NC(=O)[C@H](Cc1c[nH]c2ccccc12)NC(=O)[C@H](CCC(N)=O)NC(=O)[C@H](Cc1c[nH]c2ccccc12)NC(=O)[C@H](CCCNC(=N)N)NC(=O)[C@@H](N)CCCNC(=N)N)C(=O)NC[C@H](NC(=O)[C@H](CCCNC(=N)N)NC(=O)[C@H](Cc1c[nH]c2ccccc12)NC(=O)[C@H](CCC(N)=O)NC(=O)[C@H](Cc1c[nH]c2ccccc12)NC(=O)[C@H](CCCNC(=N)N)NC(=O)[C@@H](N)CCCNC(=N)N)C(=O)NCCCCCC(=O)N[C@@H](CSSC[C@H](NC(=O)CCCCCNC(=O)[C@H](CNC(=O)[C@H](CCCNC(=N)N)NC(=O)[C@H](Cc1c[nH]c2ccccc12)NC(=O)[C@H](CCC(N)=O)NC(=O)[C@H](Cc1c[nH]c2ccccc12)NC(=O)[C@H](CCCNC(=N)N)NC(=O)[C@@H](N)CCCNC(=N)N)NC(=O)[C@H](CCCNC(=N)N)NC(=O)[C@H](Cc1c[nH]c2ccccc12)NC(=O)[C@H](CCC(N)=O)NC(=O)[C@H](Cc1c[nH]c2ccccc12)NC(=O)[C@H](CCCNC(=N)N)NC(=O)[C@@H](N)CCCNC(=N)N)C(N)=O)C(N)=O` [LBT-1] (I: H-RRWQWR[Dap][Ahx]C-NH2 / II: H-RRWQWR[Dap][Ahx]C-NH2 / III: H-RRWQWR / IV: H-RRWQWR; amide I:7-III:C, II:7-IV:C; disulfide I:9-II:9; N-terminus and C-terminus assumed): the LC99.9 in assay [1] is reported as 0.94 µM. In assay [2], the “TNFα induction by peptide alone” value is on record as “minimal but significant”.
